# Test results reported in patent publication US11649245B2, “Cyclopropylamine compound as LSD1 inhibitor and use thereof” (HELIOEAST PHARMACEUTICAL CO., LTD., priority 2018, dated 2023).
# Where a name gives a salt, the structure may show the parent alone.
# How the values were obtained:
# [1] = target: T1, hERG potassium ion channel (Homo sapiens, UniProt Q12809); assay: Inhibition test for hERG potassium ion channel (automatic patch-clamp, CHO-hERG cells); format: cell-based; settings: Qpatch, highest test concentration 40 μM
# T1 construct: expressed in transfected cells; host or cells: CHO-hERG cells
# T1 sequence (Q12809 whole entry): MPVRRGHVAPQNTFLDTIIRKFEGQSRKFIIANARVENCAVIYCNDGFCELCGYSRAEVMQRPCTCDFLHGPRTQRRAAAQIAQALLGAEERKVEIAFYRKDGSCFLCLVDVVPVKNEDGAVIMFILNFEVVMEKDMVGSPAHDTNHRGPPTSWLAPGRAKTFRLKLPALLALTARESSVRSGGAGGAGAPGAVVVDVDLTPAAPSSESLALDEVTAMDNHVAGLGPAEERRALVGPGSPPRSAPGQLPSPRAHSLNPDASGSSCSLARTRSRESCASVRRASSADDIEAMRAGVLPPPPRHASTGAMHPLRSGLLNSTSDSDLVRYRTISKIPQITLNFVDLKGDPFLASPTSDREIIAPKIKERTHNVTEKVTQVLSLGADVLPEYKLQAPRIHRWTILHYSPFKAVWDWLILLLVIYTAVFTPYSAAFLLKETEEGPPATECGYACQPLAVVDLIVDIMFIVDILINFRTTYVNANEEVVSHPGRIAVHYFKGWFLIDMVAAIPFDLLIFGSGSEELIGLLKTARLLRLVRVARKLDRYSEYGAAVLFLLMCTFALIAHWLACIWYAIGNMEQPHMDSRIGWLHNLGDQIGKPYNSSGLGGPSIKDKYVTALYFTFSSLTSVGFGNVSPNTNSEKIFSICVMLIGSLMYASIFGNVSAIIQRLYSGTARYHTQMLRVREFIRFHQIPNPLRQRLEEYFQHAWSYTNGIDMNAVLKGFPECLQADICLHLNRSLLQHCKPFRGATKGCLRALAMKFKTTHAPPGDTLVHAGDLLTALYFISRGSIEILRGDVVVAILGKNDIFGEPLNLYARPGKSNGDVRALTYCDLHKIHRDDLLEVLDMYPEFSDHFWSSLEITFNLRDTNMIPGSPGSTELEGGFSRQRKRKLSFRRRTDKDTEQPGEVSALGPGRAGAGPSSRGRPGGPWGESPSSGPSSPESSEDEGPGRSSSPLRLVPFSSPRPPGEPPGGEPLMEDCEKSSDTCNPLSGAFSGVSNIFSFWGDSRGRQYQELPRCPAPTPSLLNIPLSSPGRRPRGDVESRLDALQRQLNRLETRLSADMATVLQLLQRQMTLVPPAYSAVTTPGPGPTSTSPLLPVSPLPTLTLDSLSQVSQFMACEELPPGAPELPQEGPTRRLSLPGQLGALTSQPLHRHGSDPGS
# Experimental: Experimental purpose: to detect the effect of the embodiments to be tested on the potassium ion channel of hERG by using the fully automatic patch-clamp method.
# 6.1.1 CHO-hERG cells were cultured in a 175 cm^2 culture flask, after the cell density was increased to 60-80%, the culture medium was removed, the cells were washed once with 7 mL PBS (Phosphate Buffered Saline), and then 3 mL digestive fluid was added for digestion.
# 6.1.2 After the digestion was complete, 7 mL of culture medium was added for neutralization, then the mixture was centrifuged, the supernatant was aspirated, and then 5 mL of culture medium was added for resuspention to ensure that the cell density was 2-5×10^6/mL.
# The single-cell high-impedance sealing and the whole-cell mode formation process were all automatically completed by the Qpatch instrument of the Shanghai Institute of Materia Medica, Chinese Academy of Sciences. After the whole-cell recording mode was obtained, the cells were clamped at −80 millivolts. […] The data were recorded for 2 minutes, then extracellular fluid was administrated, and then the data were recorded for 5 minutes. […]
# The experimental data were analyzed by XLFit software.
# [2] = tested on: HL60 cells; assay: Antiproliferation activity on HL60 cells (CellTiter-Glo, 6 days); format: cell-based; settings: incubated for 6 days
# Text: Experimental purpose: to detect the antiproliferation activity of the compound to be tested on HL60 cells.
# Experimental materials: RPMI-1640 culture medium, fetal bovine serum, penicillin/streptomycin antibiotics purchased from Wisent. CellTiter-Glo (chemiluminescent cell viability assay reagent) reagents purchased from Promega. HL60 cell line purchased from Nanjing Cobioer Co., Ltd. Nivo multi-label reader (PerkinElmer).
# Experimental method: HL60 cells were planted in a white 384-well plate, 40 μL of cell suspension per well, 600 HL60 cells were contained therein. The cell plate was placed in a carbon dioxide incubator for overnight culture. The compounds to be tested were diluted 5-fold with a pipet until the 10th concentration, i.e., diluted from 2 mM to 1.024 nM, double duplicate well experiment was set. 78 μL of the culture medium was added to an intermediate plate, and then 2 μL per well of the serially diluted compounds were transferred to the corresponding positions on the intermediate plate, after mixing, 10 μL per well was transferred to the cell plate. The cell plate was incubated in a carbon dioxide incubator for 6 days. Another cell plate was prepared and the signal value on the day of dosing was read as the maximum value (Max value in the equation below) to participate in the data analysis. 20 μL of chemiluminescent cell viability assay reagent was added to each well of this cell plate, which was incubated at room temperature for 10 minutes to stabilize the luminescence signal. The multi-label reader was used for reading.
# Data analysis: the equation (Sample-Min)/(Max-Min)*100% was used to convert the original data into the inhibition rate, the IC50 value can be obtained by curve fitting of four-parameters (“log(inhibitor) vs. response—Variable slope” mode in GraphPad Prism)).
# [3] = tested on: human small cell lung cancer NCI-H1417 xenograft tumor model; assay: In vivo pharmacodynamic study on NCI-H1417 subcutaneous xenograft tumor in CB-17 SCID mice; settings: compound 6 hydrochloride 1.5 mg/kg oral once a day, cisplatin 1 mg/kg i.p. twice a week
# Experimental: The purpose of the experiment was to evaluate the in vivo efficacy of the compounds of the present disclosure on subcutaneous xenograft tumor of human small cell lung cancer NCI-H1417 cells in a CB-17 SCID mouse model.
# Human small cell lung cancer NCI-H1417 cells (ATCC) were cultured in vitro in a single layer, the culture conditions were RPMI-1640 culture medium supplemented with 10% fetal bovine serum, 37° C. 5% CO2. When the cell saturation reached 80%-90%, the cells were collected, counted, and inoculated.
# 0.2 mL of 10×10^6 NCI-H1417 cells were subcutaneously inoculated into the right back of each mouse (PBS: Matrigel=1:1). Group administration was started when the average volume reached 100-150 mm^3.
# The vehicle used in the experiment was 0.5% methylcellulose solution, the preparation method was: 5 g of methylcellulose was weighed and dissolved in 800 mL ultrapure water, stirred evenly and made up to 1000 mL with ultrapure water. The test substance was dissolved in a solvent and prepared into a uniform solution of a certain concentration, and stored at 4° C.
# Cisplatin (Cisplatin, manufacturer Qilu Pharmaceutical Co., Ltd., 10 mg/bottle freeze-dried powder for injection, lot number 7D011A8) was added to 10 mL 0.9% NaCl to make a 1 mg/mL mother liquor, and stored at room temperature and protected from light. The mother liquor was aliquoted into 0.63 mL and stored at room temperature. 5.67 mL 0.9% NaCl was added to one of the 0.63 mL mother liquor to make a 0.1 mg/mL solution.
# The experimental indicator is to investigate whether tumor growth was inhibited, delayed, or cured. Tumor diameters were measured with a vernier caliper twice a week. The tumor volume was calculated by the calculation formula: V=0.5a×b^2, a and b respectively represent the long and short diameters of the tumor.
# The anti-tumor effect of the compounds was evaluated by TGI (%). TGI (%) can reflect the tumor growth inhibition rate. TGI (%) calculation: TGI (%)=[1-(the average tumor volume at the end of the administration in a treatment group—the average tumor volume at the beginning of the administration in the treatment group)/(the average tumor volume at the end of the treatment of the solvent control group—the average tumor volume at the beginning of the treatment of the solvent control group)]×100%.
# [4] = target: human LSD1 (Homo sapiens, UniProt O60341); assay: In vitro enzyme activity screening against LSD1 (HRP/Amplex Red fluorescence coupling enzyme method); format: biochemical; settings: human LSD1, histone H3K4me peptide substrate 20 μM
# Experimental: The purpose of this test was to detect the in vitro inhibitory activity of the compounds against LSD1. The enzyme used in this test was human LSD1, the standard substrate was histone H3K4me peptide (20 μM), the fluorescence coupling enzyme method was used to determine the activity of the compound by combining horseradish peroxidase (HRP) and fluorescent reagent Amplex Red to detect the H2O2 generation as a result of the reaction of LSD1. Compounds were tested in 10-dose IC50 mode with a 3-fold serial dilution starting at 10 μM. The enzyme and […] to start the reaction. Fluorescence detector: Envision, excitation wavelength: Ex/Em=530/590 […]
structure (smiles),measurement,setting,value
O=C(O)c1ccc(CN2CCC3(CC2)CC(N[C@@H]2C[C@H]2c2ccccc2)CO3)cc1 (some centres unmarked) [Hydrochloride of the compound 6],IC50,[1],> 40000 nM
same,IC50,[2],14.7 nM
same,Tumor volume mean ± SEM (28th day),[3]; CB-17 SCID mice,187 ± 14 mm^3
same,TGI,"[3]; tumor growth inhibition rate, 28th day",79.2%
same,IC50,[4],329 nM
